Experiments:
[1] = tested on: equine kidney γ-glutamyltranspeptidase; assay: γ-Glutamyltranspeptidase assay (stability to γ-GT mediated degradation); type: in vitro ADME
Procedure: γ-Glutamyltranspeptidase Assay. […] The plates were developed alongside authentic predicted degradation products with the solvent system: 4:1.5:2; Butanol/Acetic acid/Water. Visual detection of TLC spots was performed under UV and also by iodine and fluorescamine staining solution.

[2] = target: T1, yeast glyoxalase I (Saccharomyces cerevisiae, UniProt P50107); assay: Glyoxalase I enzyme kinetics assay; type: biochemical; settings: yeast Glx-I, MG, 30° C., phosphate buffer pH 6.6
T1 construct: purchased Sigma
T1 sequence (P50107 1-326): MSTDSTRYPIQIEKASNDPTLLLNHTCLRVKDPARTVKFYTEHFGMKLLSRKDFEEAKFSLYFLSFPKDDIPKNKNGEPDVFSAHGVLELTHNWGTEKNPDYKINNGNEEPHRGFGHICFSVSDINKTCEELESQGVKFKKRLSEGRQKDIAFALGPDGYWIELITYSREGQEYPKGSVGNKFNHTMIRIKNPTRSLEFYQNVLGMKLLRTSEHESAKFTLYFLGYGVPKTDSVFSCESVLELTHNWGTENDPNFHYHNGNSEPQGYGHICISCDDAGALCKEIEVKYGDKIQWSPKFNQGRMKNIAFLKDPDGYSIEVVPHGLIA
Procedure: Glyoxalase I Enzyme Kinetics Assay. The glutathione analog, Ψ-GSH and asparthione were examined for their ability to act as substrates for the yeast glyoxalase I mediated […] of MG. The commercial 40% methylglyoxal solution was distilled to remove polymerization products. Enzyme assays were performed (30° C., 0.05 M phosphate buffer (pH 6.6)) using a thermostated Beckman DU® 7400 spectrophotometer. Fresh solutions of GSH, Ψ-GSH and asparthione were prepared on the day of the assays with distilled, deionized water. In each assay, the cell contained a total volume of 3.0 mL which was no more than 6.0 mM with respect to methylglyoxal and 1.3 mM with respect to GSH or its analogs. […] Data were analyzed utilizing an Enzyme kinetics module of Sigmaplot 9.0 from Systat Software Inc.

[3] = Pharmacokinetic evaluation in plasma; type: in vivo, C57BL/6 mice; settings: single i.p. dose 500 mg/kg; for CL_F Clearance / absorption half-life / half-life / AUC / Cmax / Tmax: C57BL/6 mice, plasma; for absorption half-life / half-life / AUC / Cmax / Tmax: female, ip; for absorption half-life / half-life: C57BL/6, mouse, 500 mg/kg; for absorption half-life: read-out: K01 absorption half life (converted); for half-life: read-out: K10 elimination half life (converted); for AUC / Cmax / Tmax: mouse
Procedure: Pharmacokinetic Evaluation of Ψ-GSH. Eight weeks old C57BL/6 female mice (n=4 animals/time point) were given 500 mg/kg of GSH or Ψ-GSH in saline intraperitoneally. Blood samples were collected at […], 1, 2, 4, 8, 24 hr after the drug administration through retro-orbital bleeding into heparin-coated tubes. Blood was immediately centrifuged at 5000×g for 10 min at 4° C. The top plasma layer was transferred into a new tube and mixed with an equal volume of 5% sulfosalicylic acid in […] potassium phosphate buffer containing 1 mM EDTA disodium salt (pH 7.2). This was followed by centrifugation of samples at 8000×g for 10 min at 4° C. and analysis of thiol concentration. The derivatization reaction was realized utilizing 130 μL of the supernatant, 500 μL of Tris-HCl buffer 0.5 M, pH 8.9 and 350 μL of DTNB 10 mM in of K2HPO4 (0.5 M, pH 8.0). After 5 min in an ice bath, the reaction mixture was acidified by addition of 100 μL H3PO4 7 M and centrifuged at 3000×g for 10 min. Then, derivatized GSH or Ψ-GSH was filtered through a 0.22 μm membrane and 20 μL was injected in HPLC at 330 nm. HPLC analysis was carried out on a Beckman Coulter Gold HPLC system, controlled by a system controller (32 Karat workstation with PC). The HPLC conditions employed a Varian Microsorb column (C18, 5 μm, 4.6×250 mm) using solvent A [water containing 0.9% v/v formic acid] and solvent B [acetonitrile] with 1 mL/min flow rate and detected at 330 nm. Solvent B was increased from 0 to 30% in 9 min, then to 80% in 7 min, and held at 80% for an additional 4 min. The retention time for derivatized Ψ-GSH was 11.8 minutes.

[4] = tested on: C57BL/6 mice; assay: Short-term toxicity / dose determination study; type: in vivo; settings: i.p. 3×/week for two weeks, highest dose 2000 mg/Kg
Procedure: Dose Determination Study: Ψ-GSH was injected intraperitoneally and orally in wild type C57BL/6 mice (6-8 week old, 4/group) three times a week for two weeks. The doses of Ψ-GSH employed ranged from 100 mg/kg to 2000 mg/kg. Body weight (twice a week), complete blood count (CBC) analysis and liver, kidney and lung histology was considered to be indicative of toxicity from the drug treatment. Histological sections of tissue were analyzed by a board-certified pathologist at the Masonic Cancer Center-Comparative Pathology Shared Resource, University of Minnesota.

[5] = Non-protein thiols in plasma and brain (DTNB); type: in vivo, C57BL/6 mice
Procedure: Detection of Non-Protein Thiols in Plasma and Brain. Wild type C57BL/6 mice at the age of six to eight weeks (4 per group) were treated with Ψ-GSH i.p and orally. Mice were euthanized by overdose of ketamine and xylazine at the desired time-points from the administration of the drug (0, 0.5, 1, 2 and 4 hours after drug administration). Brain and plasma samples were collected. Brains were perfused with ice-cold 0.9% NaCl, and cut sagittally into left and right hemispheres. The right hemisphere was fixed in Zamboni's fixative as described under Immunohistochemistry. The left hemispehere was immediately frozen in liquid nitrogen and utilized in further biochemical analysis. Brain tissue was homogenized in ice-cold buffer (50 mM phosphate, pH 7.0, containing 1 mM EDTA containing protease inhibitors) containing 5% sulfosalicylic acid. After homogenization, samples were centrifuged at 8000×g for 10 min at 4° C. The clear supernatant was transferred to a new tube and used for analysis of free thiol concentration.
Blood was collected in heparin-coated tubes (Fisher, Pittsburgh, Pa.) and immediately centrifuged at 5000×g for 10 min at 4° C. […]
Assay Conditions: 150 μl of Tris.HCl, pH 8.9 (Trizma base, 0.2 M; EDTA 0.02 M)+20 μl of DTNB (1 mg/mL in methanol)+50 μl of supernatant from TCA precipitation. The changes in absorbance were measured at 412 nm after […] incubation in dark at room temperature.

Row | SMILES | time to complete degradation by γ-GT ([1]; incubation with γ-GT) [min] | slope for initial velocity vs. substrate concentration [2] | CL_F Clearance [3] [mL/min/kg] | absorption half-life [3] [min] | half-life [3] [min] | AUC [3] [µg·h/mL] | Cmax [3] [µg/mL] | Tmax [3] [min] | degradation during incubation with γ-GT ([1]; incubation with γ-GT for up to 24 h) | ALT, AST, ALP, blood urea nitrogen (BUN) and creatinine levels [4] | Body weights and CBC [4] | Histopathology of lung, liver and kidney tissue vs saline-treated mice [4] | plasma thiol level ([5]; oral 500 mg/Kg, over 2 hours) | plasma thiol level ([5]; single i.p. 500 mg/Kg, at 4 hours) | AUC relative to GSH [3] [fold] | Cmax relative to GSH [3] [fold] | Tmax relative to GSH [3] [fold]
1 | N[C@@H](CCC(=O)N[C@@H](CS)C(=O)NCC(=O)O)C(=O)O [GSH, Glutathione] | ≤ 30 | 0.1954±0.0216 | 165.9 | 7.62 | 29.7 | 50.2 | 43.9 | 20.2 | – | – | – | – | – | – | – | – | –
2 | N[C@@H](CNC(=O)N[C@@H](CS)C(=O)NCC(=O)O)C(=O)O [Ψ-GSH, γ-Gla-Cys-Gly-OH] | – | 0.0498±0.0040 | 31.15 | 10.3 | 73.6 | 267 | 110 | 34 | No appreciable degradation | Unaffected | insignificantly affected | no significant difference | reducing to basal levels | dropped to basal levels | 5.3 | 2.5 | 3
